row,Compound,melting point [°C]
1,Nc1nc(N)nc(C=Cc2ccc(C=C3C(=O)NC(=O)NC3=O)cc2)n1,> 350
2,CCN(CC)CCCC(=O)c1ccc2c(c1)Cc1cc(C(=O)CCCN(CC)CC)ccc1-2,79 to 81
3,O=C(c1ccc(-n2ccc(C3CC3)n2)cc1C(F)(F)F)N1Cc2cccn2Cc2ccccc21,163 to 164
4,NC(=O)C1CCN(CC=Cc2ccccc2)CC1,190 to 192
5,CCOC(=O)C(C)=NNc1ccc2[nH]c(=O)[nH]c2c1,220
6,CCOc1cc2c(c3c1OC(C)(C)C3)C(c1cccc(C(=O)NC)c1)=NC(C)(C)C2,173 to 174
7,CN(Cc1csc(N)c1C(=O)c1ccc(Cl)cc1)c1ccccc1,129 to 131
8,O=C/C=C/C=C/c1ccc(OCC(F)(F)C(F)F)nc1,88 to 89
9,COCc1ccc2c(c1S(N)(=O)=O)S(=O)(=O)C(C)C2 (centres undefined),115
10,NS(=O)(=O)c1cccc(NC(=O)c2cnn3c(C(F)F)cc(-c4ccc(Cl)cc4)nc23)c1,278
11,CCOC(=O)CCC(=O)Nc1n[nH]c2cc(C(F)(F)F)ccc12,248
12,CC(=O)c1c(O)cccc1OCC(O)COc1ccc(Cl)cc1Cl (centres undefined),130 to 132
13,OCCCC(=C(c1ccccc1)c1ccccc1)c1ccccc1,128 to 130
14,O=c1[nH]nnc2sccc12,175 to 176
15,CN(C)S(=O)(=O)N1CCN(S(=O)(=O)c2ccc(-c3ccc(CC#N)cc3)s2)[C@@H](C(=O)NO)C1,170 to 172
16,CCCN1CCN(Cc2ccc3c(c2O)OCO3)CC1,115 to 117
17,CCN(CC)CCN1c2ccccc2N(C)C(=O)c2ccc(C)nc21,91 to 93
18,O=C(Nc1ccccc1)C(=O)c1c2n(c3ccccc13)CCNCC2,157 to 160
19,CN1C(=O)C(C)(C)N=C(c2ccccc2F)c2cc([N+](=O)[O-])cc(Cl)c21,237 to 238
20,CCN1CC2CCCC2C1CNC(=O)c1cc(S(N)(=O)=O)ccc1OC (centres undefined),232
21,CON=Cc1nn(-c2c(Cl)cc(C(F)(F)F)cc2Cl)c(N)c1SC(F)(F)F,129 to 132
22,COc1ccc(-c2c(C#N)nn(-c3c(Cl)cc(C(F)(F)F)cc3Cl)c2N)cc1,222
23,CNC(=S)C1(c2ccc(C)cn2)CCCS1 (centres undefined),134

row,Compound,melting point [°C]
1,CCCCOC(=O)NS(=O)(=O)c1ccccc1-c1ccc(Cn2c(CCC)nc(SC)c2C(=O)O)cc1,202 to 204
2,Cc1nccn1Cc1ccc(N)cc1C(F)(F)F,146 to 147
3,C=C(C)Oc1nc(NCCSCc2ccco2)ncc1Cc1ccc(C)nc1,47 to 48
4,Cc1cc(N)nc(CCCCCCCCCCO)c1O,138 to 139
5,O=C1NCC(CN2C(=O)C3(COc4cc5c(cc43)CCO5)c3ccccc32)O1 (centres undefined),197 to 198
6,CCCc1nc2c(N)nc3ccccc3c2n1CCCCN(OC)C(=O)Nc1ccccc1,164 to 166
7,Cc1coc(NCCN2CCC(Nc3nc4ccccc4n3Cc3ccc(F)cc3)CC2)n1,178
8,CCCCCCCCc1ccc(C=Nc2ccc(C#N)cc2)cc1,32.5 to 32.8
9,NC(=O)c1c(Cl)c(-c2ccccc2)n2c1CN(C(=O)Cc1cccs1)CC2,225 to 229
10,COCC(C)Nc1cc(-c2ccnc(Nc3cccc(Cl)c3)n2)ccn1 (centres undefined),143 to 144
11,COc1ccc(CN[C@@H](C(=O)O)[C@@H](O)[C@H](Cc2ccccc2)NC(=O)OC(C)(C)C)cc1,203 to 206
12,CCOC(=O)C1CCC(CS(=O)(=O)c2ccc(Oc3ccc(OC(F)(F)F)cc3)cc2)(N(O)C=O)CC1 (centres undefined),150 to 151
13,N#Cc1ccc(N2CCC(C(N)=O)CC2)c2ccccc12,249 to 250
14,c1ccc(OCCSCc2ncc(-c3ccc(OCCN4CCCCCC4)cc3)o2)cc1,35 to 38
15,CCOc1cccc(COc2ccc3c(c2)C=C(C(=O)Nc2ccc(CN(C)C4CCOCC4)cc2)CCS3(=O)=O)c1,189 to 192
16,CCOC(=O)C1=C(C)NC(O)(C(F)(F)F)C(C(=O)OCC)C1c1cccc([N+](=O)[O-])c1 (centres undefined),120 to 121
17,CC(=O)C1=C(C)Nc2nc(N)nc(N)c2C1c1ccccc1Cl (centres undefined),254
18,CN(CC(N)=O)c1nccc(-c2ccc(C(=O)NCCc3ccc4[nH]cc(C(=N)N)c4c3)cc2)n1,96 to 98
19,CCCC1=C(C(=O)OC)C(c2ccccc2Cl)c2c[nH]nc2N1 (centres undefined),203 to 207
20,CNc1ncccc1[N+](=O)[O-],52 to 53
21,O=[N+]([O-])c1ccc(OCCN2CCN(c3nsc4ccccc34)CC2)cc1,115
22,COC1=C(OC)C(=O)C(CCCCCCCCCC(=O)N[C@H](CCC(=O)OCc2ccccc2)C(N)=O)=C(C)C1=O,83 to 85
23,CSc1ccc(NC(=O)N(C)O)cc1C(F)(F)F,125

# Results, then the compound that gave them:
row,melting point [°C],Compound
1,144 to 145,Cc1nsc(NC(=O)Cc2ccc3oc(CC(C)(C)C)nc3c2)c1Cl
2,64 to 72,CCN(CC)c1ccc2c(c1)Oc1cc(OC(C)=O)c3ccccc3c1N2C(C)=O
3,98 to 99,CCC(CC)Cn1cc(C(=O)C(=O)O)c2cc(-c3ccc(OC(F)(F)F)cc3)ccc21
4,215,Cc1ccccc1-c1nc2ccccc2[nH]1
5,160 to 162,Oc1cccnc1Cc1cccc(Br)c1
6,58 to 62,CS(=O)(=O)c1ccc(-c2cnn(CC(F)(F)F)c(=O)c2Cc2cccc(F)c2)cc1
7,117 to 118,CCCCC(Cc1ccc(OCCNC(=O)c2ccc(OC(C)C)nc2)cc1)C(=O)O (centres undefined)
8,75 to 80,COC(=O)On1c(C(=O)OC)cc2c(C)ccc(C)c21
9,152 to 154,COC(=O)c1sc(C)c(Br)c1OC(=S)N(C)C
10,143 to 145,COC(=O)CCCCC(=O)Nc1ccc2c3c(n(CCCNC(=O)OC(C)(C)C)c(=O)c2c1)-c1ccccc1C3=O
11,153,Cc1cc(O)n(C2CCCCC2)n1
12,72 to 73,CC(C)(C#N)c1cc(CC#N)cc(C(C)(C)C#N)c1
13,160,N=C(N)Nc1nc(CSCCC(=O)NS(N)(=O)=O)cs1
14,141 to 142,CC(=O)n1cc(C#N)c(-c2cccc(Cl)c2F)c1
15,148,COc1ccnc(CSc2nc3cc(C(F)(F)F)ccc3[nH]2)c1C
16,178 to 179,Nc1ccc(F)c(-c2ccc3ncccc3c2)c1F
17,170 to 172,CC1CCC(C(C)C)C(OC(=O)N[C@@]2(C)CCC(=O)NC2=O)C1 (some centres undefined)
18,130 to 144,CC(=O)OCCOc1ncnc(NS(=O)(=O)c2ccc(C)cc2)c1C=O
19,159,Cc1cc(-c2cc(C(F)(F)F)[nH]n2)c(F)cc1Cl
20,166 to 168,CCOC(=O)c1nc2ccc(I)cc2[nH]1
21,181 to 183,CCCCNc1c2c(nc3c1cnn3CC)C(=O)c1ccccc1CC2
22,184 to 185,O=C(O)C(=O)CC(=O)c1cccn1Cc1ccc(Br)cc1
23,172 to 180,CC(C)(C)c1cc(I)c(O)c(CNS(=O)(=O)O)c1
24,218 to 219,CONS(=O)(=O)c1ccccc1S(=O)(=O)NC(=O)Nc1nc(C)cc(C)n1
25,189 to 191,Cc1c(CN2CCN(c3cccc(Cl)c3)C2=O)ncn1C(c1ccccc1)(c1ccccc1)c1ccccc1
26,214,Cn1c(=O)c2c(Cl)cccc2n2cnc(C(=O)OCC3CC3)c12
27,191 to 192,Cc1cccc2c1nc1n2CC(C(C)(C)C)Oc2c(Cl)cccc2-1 (centres undefined)

row,melting point [°C],Compound
1,131,CC(=O)n1cc(Cl)c(-c2cccc3c2OC(F)(F)O3)n1
2,47 to 50,COC(=O)C=CC(C)=Cc1cc(N)ccc1Cl
3,145 to 147,C=CCOc1ccc2c(=O)c(C)c(-c3ccccc3)oc2c1C(=O)C=Cc1ccccc1
4,201 to 204,CCOc1ccccc1-c1nc2c(C)nn(C)c2c(=O)[nH]1
5,123 to 125,CCC(C)CC1OC(CC(=O)Nc2ccc(F)c(CCC(=O)O)c2)C(=O)N(CC(C)(C)CO)c2ccc(Cl)cc21 (centres undefined)
6,167 to 168,COc1cc(OC)nc(NC(=O)NS(=O)(=O)N=CN(C)CSC)n1
7,202 to 203,CCOC(=O)c1cc2ccc3c(c2cc1OCC)OC(n1cccc1)=C(C#N)C3c1cccc([N+](=O)[O-])c1 (centres undefined)
8,112 to 113,COCCCS(=O)(=O)NC(=O)CCc1ccc(OCCOC)cc1Oc1ncc(C(F)(F)F)cc1Cl
9,130 to 131,Cc1nc2cc(C(C)C)ccc2n1C
10,219 to 220,CC(=O)c1cc(N=c2cc(C)n(C)c(N)n2)cc(C(C)=O)c1
11,221 to 223,Cc1cccc(OC2=NS(=O)(=O)N=C(Oc3cccc(C)c3)N2C)c1
12,234 to 235,Cc1c(S(=O)c2cc(Cl)c(Cl)cc2Cl)cc(C(C)(C)C)c(O)c1C(=O)Nc1ccc([N+](=O)[O-])cc1C(F)(F)F (centres undefined)
13,150 to 152,COc1cccc(CCc2ccccc2OC[C@H]2CCCN(C(=O)OC(C)(C)C)C2)c1
14,149 to 150,CC1=NN(c2cc(-c3ccnc(Nc4cccc(Cl)c4)n3)ccn2)C(=O)C1
15,228 to 229,CC(F)(F)S(=O)(=O)c1c(C(N)=S)nn(-c2c(Cl)cc(C(F)(F)F)cc2Cl)c1N
16,168 to 169,CC(C)CCSc1cc(C(=O)O)cc(S(=O)(=O)Cl)c1Oc1ccccc1
17,114 to 115,CC(=O)c1ccc(CCOc2ccc(CC3SC(=O)NC3=O)cc2)nc1 (centres undefined)
18,108,Nc1cccc(-c2cccnc2)n1
19,190 to 191,CCc1ccc(N/C=C/[N+](=O)[O-])c(C(=O)O)c1
20,105 to 107,CCCCCCOc1ccc(CBr)c2c(OCCCCCC)ccc(CBr)c12
21,169 to 171,O=C1Cc2cc(-c3cccc(Cl)c3)ccc2N1
22,> 350,O=C1NC(=O)C2=C1c1c([nH]c3ccccc13)Cc1[nH]c3ccccc3c12
23,138 to 140,CCc1[nH]n(C2CCCC2)c2nc(COS(C)(=O)=O)nc(=O)c1-2
24,237 to 241,CC(=O)NC=Nc1ccc2nnc(-c3ncc([N+](=O)[O-])n3C)n2n1
25,195 to 197,Cc1cc(C)n(C(c2ccccc2)(c2ccccc2)c2ccccc2Cl)n1
26,119 to 120,CSC(C[C@H](NC(=O)[C@H](CC(C)C)NC(=O)OCc1ccccc1)C(C)=O)c1ccccc1 (some centres undefined)

# Source: a melting point compilation (Tetko et al.; mined from patent text by program, amines drawn as free bases though some values may be those of a salt)
